The source of these data is patent US20250092064A1, “BENZOTRIAZOLE COMPOUND” (DAIICHI SANKYO COMPANY, LIMITED, priority 2022, published 2025).

The target in assay [1] is binding between Nrf2 and Keap1 (Homo sapiens (Human), UniProt Q14145). As to the kind of experiment: FP assay (in vitro): inhibition of Nrf2-Keap1 binding by fluorescence polarization. The note with it: GST-fused human Keap1 (325-642) 20 nM, FITC-labeled Nrf2 peptide 10 nM, 2 hr at room temperature.
Assay [2] concerns NQO1 activity in Hepa1c1c7 cells. As to the kind of experiment: NAD(P)H: quinone oxidoreductase-1 (NQO1) enzyme induction assay (in vitro). The format is cell-based, mouse. The note with it: Mus musculus, Hepa-1c1c7, NQO1 activity with 400 nM test compound as a ratio from the base without compound, about 48 hr. The method, then:
The NQO1 assay was performed based on a previous report (Methods in Enzymology 2004; 382: 243-258). Hepa1c1c7 cells (mouse hepatocyte cell line, ATCC, cat. no. CRL-2026) were cultured in D-MEM medium containing 10% FBS and 1% penicillin/streptomycin (5% CO2, 37° C.), and seeded into 96-well plates (Corning REF. 353072) at 1×10^4 cells/well. A portion of the wells were prepared with medium only for background measurement without seeding cells. The next day, 400 nM of the test compound (0.004% of the final concentration in DMSO) dissolved in DMSO was added thereto, and the wells were incubated for about 48 hr. A well without adding the test compound was prepared for base activity assay in part. […] After the medium was removed, 50 μL of the cell lysate was added and incubated at 37° C. for 10 minutes, followed by shaking at room temperature for 10 minutes. 200 μL of reaction solution was added thereto, and allowed to stand for 5 minutes at room temperature. 50 μL of the stop solution was added thereto, and absorbance was measured at 610 nm on a SpectraMax PLUS384 (Molecular devices) or […] Pharma Biomedical). The test results were analyzed in Excel, and the NQO1 activity upon addition of 400 nM of test compound was calculated as a ratio from the base without the compound. NQO1 activity ratio when test compound is added=(absorbance when test compound is added-absorbance of medium only)/(absorbance without addition of compound-absorbance of medium only) [numerical formula 2] The results of each test compound in this test are shown in the following Table 2 (A:5<NQO1 activity ratio, B:3<NQO1 activity ratio≤5).

binding between Nrf2 and Keap1, sequence (Q14145 325-624 limits assumed): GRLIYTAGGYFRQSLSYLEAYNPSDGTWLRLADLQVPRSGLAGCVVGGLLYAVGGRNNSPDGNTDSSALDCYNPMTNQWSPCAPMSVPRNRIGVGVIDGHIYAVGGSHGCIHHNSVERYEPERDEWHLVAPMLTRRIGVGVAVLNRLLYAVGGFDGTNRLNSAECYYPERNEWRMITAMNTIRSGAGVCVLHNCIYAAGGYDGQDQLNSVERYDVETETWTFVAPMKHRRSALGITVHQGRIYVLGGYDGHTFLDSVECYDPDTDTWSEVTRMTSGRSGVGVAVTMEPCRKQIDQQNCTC

In assay [1], `CCOc1cc2c(cc1Cl)S(=O)(=O)N(Cc1cc(C(CC(=O)O)c3ccc4c(nnn4C)c3C)cc3c1CCC3)C[C@@H](CC)O2` (stereo partly drawn) [Example 18, 3-(7-{[(4R)-8-Chloro-7-ethoxy-4-ethyl-1,1-dioxido-3,4-dihydro-2H-5,1,2-benzoxathiazepin-2-yl]methyl}-2,3-dihydro-1H-inden-5-yl)-3-(1,4-dimethyl-1H-benzotriazol-5-yl)propanoic acid] gave a half-maximal inhibitory concentration (IC50) of 30 to 100 nM. The fold induction at 0.4 µM in assay [2] is 3 to 5.
In assay [1], `CC[C@@H]1CN(Cc2cc(C(CC(=O)O)c3ccc4c(nnn4CC(F)(F)F)c3C)cc3ccsc23)S(=O)(=O)c2cc(Cl)cnc2O1` (stereo partly drawn) [Example 60, 3-(7-{[(4R)-8-Chloro-4-ethyl-1,1-dioxido-3,4-dihydro-2H-pyrido[2,3-b][1,4,5]oxathiazepin-2-yl]methyl}-1-benzothiophen-5-yl)-3-[4-methyl-1-(2,2,2-trifluoroethyl)-1H-benzotriazol-5-yl]propanoic acid] displayed an IC50 of 10 to 30 nM. In assay [2], the fold induction at 0.4 µM is more than 5.
`CC[C@@H]1CN(Cc2cc([C@H](CC(=O)O)c3cc(Cl)c4c(nnn4C)c3C)cc3ccsc23)S(=O)(=O)c2cc(Cl)cnc2O1` [Example 30, (3S)-3-(7-Chloro-1,4-dimethyl-1H-benzotriazol-5-yl)-3-(7-{[(4R)-8-chloro-4-ethyl-1,1-dioxido-3,4-dihydro-2H-pyrido[2,3-b][1,4,5]oxathiazepin-2-yl]methyl}-1-benzothiophen-5-yl)propanoic acid] yielded an IC50 in assay [1] not above 10 nM. For the same compound, the fold induction at 0.4 µM in assay [2] was 3 to 5.
With `CC[C@@H]1CN(Cc2cc(C(CC(=O)O)c3cc(C(F)(F)F)c4c(nnn4C)c3C)cc3ccsc23)S(=O)(=O)c2cc(Cl)cnc2O1` (stereo partly drawn) [Example 53, 3-(7-{[(4R)-8-Chloro-4-ethyl-1,1-dioxido-3,4-dihydro-2H-pyrido[2,3-b][1,4,5]oxathiazepin-2-yl]methyl}-1-benzothiophen-5-yl)-3-[1,4-dimethyl-7-(trifluoromethyl)-1H-benzotriazol-5-yl]propanoic acid], the half-inhibitory concentration (IC50) in assay [1] fell in the range of 10 to 30 nM. In assay [2], the fold induction at 0.4 µM was more than 5.
Turning to `CC[C@@H]1CN(Cc2cc([C@H](CC(=O)O)c3cc(OC(F)F)c4c(nnn4C)c3C)cc3c2CCC3)S(=O)(=O)c2cc(Cl)cnc2O1` [Example 99, (3S)-3-(7-{[(4R)-8-Chloro-4-ethyl-1,1-dioxido-3,4-dihydro-2H-pyrido[2,3-b][1,4,5]oxathiazepin-2-yl]methyl}-2,3-dihydro-1H-inden-5-yl)-3-[7-(difluoromethoxy)-1,4-dimethyl-1H-benzotriazol-5-yl]propanoic acid], the IC50 in assay [1] is not above 10 nM. Also, the fold induction at 0.4 µM in assay [2] was more than 5.
In the same order, the values of `CC[C@@H]1CN(Cc2cc(C(CC(=O)O)c3cc(C4CC4)c4c(nnn4C)c3C)cc3c2OCC3)[C@@H](C)c2ncccc2O1` (stereo partly drawn) [Example 107, 3-(7-Cyclopropyl-1,4-dimethyl-1H-benzotriazol-5-yl)-3-(7-{[(2R,5S)-2-ethyl-5-methyl-2,3-dihydropyrido[2,3-f][1,4]oxazepin-4(5H)-yl]methyl}-2,3-dihydro-1-benzofuran-5-yl)propanoic acid] are 10 to 30 nM and more than 5.
In turn, `CCOc1ccc2c(n1)O[C@H](CC)CN(Cc1cc([C@@H](CC(=O)O)c3ccc4c(nnn4C)c3C)cc3ccsc13)S2(=O)=O` [Example 112, (3R)-3-(1,4-Dimethyl-1H-benzotriazol-5-yl)-3-(7-{[(4R)-7-ethoxy-4-ethyl-1,1-dioxido-3,4-dihydro-2H-pyrido[2,3-b][1,4,5]oxathiazepin-2-yl]methyl}-1-benzothiophen-5-yl)propanoic acid] gave an IC50 in assay [1] not above 10 nM. The fold induction at 0.4 µM in assay [2] fell in the range of 3 to 5.
For `CC[C@@H]1CN(Cc2cc([C@@H](CC(=O)O)c3cc(OC(F)(F)F)c4c(nnn4C)c3C)cc3c2CCC3)S(=O)(=O)c2cc(Cl)cnc2O1` [Example 101, (3R)-3-(7-{[(4R)-8-Chloro-4-ethyl-1,1-dioxido-3,4-dihydro-2H-pyrido[2,3-b][1,4,5]oxathiazepin-2-yl]methyl}-2,3-dihydro-1H-inden-5-yl)-3-[1,4-dimethyl-7-(trifluoromethoxy)-1H-benzotriazol-5-yl]propanoic acid], in assay [1], the IC50 was not above 10 nM. Also, the fold induction at 0.4 µM in assay [2] was more than 5.
The like results for `CC[C@@H]1CN(Cc2cc([C@@H](CC(=O)O)c3cc(C4CC4)c4c(nnn4C)c3C)cc3c2CCC3)[C@@H](C)c2ncccc2O1` [Example 105, (3R)-3-(7-Cyclopropyl-1,4-dimethyl-1H-benzotriazol-5-yl)-3-(7-{[(2R,5S)-2-ethyl-5-methyl-2,3-dihydropyrido[2,3-f][1,4]oxazepin-4(5H)-yl]methyl}-2,3-dihydro-1H-inden-5-yl)propanoic acid] were, in that order, 10 to 30 nM and more than 5.
`CC[C@@H]1CN(Cc2cc(C(CC(=O)O)c3cc(O)c4c(nnn4C)c3C)cc3ccsc23)[C@@H](C)c2ncccc2O1` (single isomer, unassigned) [Example 93, (3S*)-3-(7-{[(2R,5S)-2-Ethyl-5-methyl-2,3-dihydropyrido[2,3-f][1,4]oxazepin-4(5H)-yl]methyl}-1-benzothiophen-5-yl)-3-(7-hydroxy-1,4-dimethyl-1H-benzotriazol-5-yl)propanoic acid]: in assay [1], the half-inhibitory concentration (IC50) is not above 10 nM. Further, the fold induction at 0.4 µM in assay [2] was more than 5.
The compound `Cc1c([C@H](CC(=O)O)c2cc3c(c(CN4CC5(CC5)Oc5ncc(Cl)cc5S4(=O)=O)c2)CCC3)ccc2c1nnn2C` [Example 42, (3R)-3-{7-[(8′-Chloro-1′,1′-dioxido-spiro[cyclopropane-1,4′-pyrido[2,3-b][1,4,5]oxathiazepine]-2′(3′H)-yl)methyl]-2,3-dihydro-1H-inden-5-yl}-3-(1,4-dimethyl-1H-benzotriazol-5-yl)propanoic acid] displayed a half-inhibitory concentration (IC50) in assay [1] not above 10 nM. Further, in assay [2], the fold induction at 0.4 µM is more than 5.
Consider `CC[C@@H]1CN(Cc2cc(C(CC(=O)O)c3ccc4c(nnn4C)c3C)cc3ccsc23)S(=O)(=O)c2cc(Cl)cnc2O1` (stereo partly drawn) [Example 1, 3-(7-{[(4R)-8-Chloro-4-ethyl-1,1-dioxido-3,4-dihydro-2H-pyrido[2,3-b][1,4,5]oxathiazepin-2-yl]methyl}-1-benzothiophen-5-yl)-3-(1,4-dimethyl-1H-benzotriazol-5-yl)propanoic acid], for which the IC50 in assay [1] was in the range of 30 to 100 nM. Moreover, in assay [2], the fold induction at 0.4 µM is more than 5.
As for `CC[C@@H]1CN(Cc2cc(C(CC(=O)O)c3cc(C4CC4)c4c(nnn4C)c3C)cc3c2OCC3)S(=O)(=O)c2cc(Cl)cnc2O1` (stereo partly drawn) [Example 102, 3-(7-{[(4R)-8-Chloro-4-ethyl-1,1-dioxido-3,4-dihydro-2H-pyrido[2,3-b][1,4,5]oxathiazepin-2-yl]methyl}-2,3-dihydro-1-benzofuran-5-yl)-3-(7-cyclopropyl-1,4-dimethyl-1H-benzotriazol-5-yl)propanoic acid], the IC50 in assay [1] is not above 10 nM. Also, the fold induction at 0.4 µM in assay [2] is more than 5.
For the compound `CC[C@@H]1CN(Cc2cc(C(CC(=O)O)c3cc(C4CC4)c4c(nnn4C)c3C)cc3ccsc23)S(=O)(=O)c2cc(Cl)cnc2O1` (stereo partly drawn) [Example 49, 3-(7-{[(4R)-8-Chloro-4-ethyl-1,1-dioxido-3,4-dihydro-2H-pyrido[2,3-b][1,4,5]oxathiazepin-2-yl]methyl}-1-benzothiophen-5-yl)-3-(7-cyclopropyl-1,4-dimethyl-1H-benzotriazol-5-yl)propanoic acid], the half-inhibitory concentration (IC50) in assay [1] lay in the range of 30 to 100 nM. Also, in assay [2], the fold induction at 0.4 µM is more than 5.

A word on the IC50: it is the midpoint of a concentration-inhibition curve. Lower therefore signals greater potency. By fold induction is commonly meant the signal under treatment as a multiple of the control signal.
